Read-outs that look alike come from different tables or passages of the source.
Assays:
[1] = Plasma pharmacokinetics after intravenous administration of the single active ingredients (Study 1); settings: for T1/2 (plasma half-life): Study 1, single i.v. bolus in tetraglycol, 0.2 mg/kg praziquantel (actual 1.62, 0.21, 0.21 mg/kg), n = 6 per group, HPLC-MS/MS, geometric mean (geometric CV%)
Description: (§1) Altogether three studies were conducted.
(§2) Each AI and treatment were evaluated separately.
(§3) All parameters were derived from individual animal data sets.
(§4) Relative data set weight was always set to 1.
The basic plasma PK characteristics of the active AIs tigolaner, emodepside and praziquantel were profiled after i.v. dosing based on at least the following parameters: Clearance (Cl), V, extrapolated concentration at time of dosing (C0), area under the curve until the last concentration above LoQ (AUClast), AUCinf, dose normalized AUClast and AUCinf (AUClast/D, AUCinf/D), mean residence time (MRT), and half-life. The statistical group mean estimates and suitable statistical parameters describing the distribution (scattering) were provided.

[2] = Plasma pharmacokinetics after single topical Felpreva at 2.5x and 5x dose multiples (Study 2); settings: for Cmax: n = 8, plasma, geometric mean; for AUCinf / T1/2 / Tmax / AUC(0-inf) / half-life: n = 8, geometric mean; for AUClast/D (Geo CV%) / Cmax/D (Geo CV%): dose-normalised, geometric mean (geometric CV%); for AUC(0-inf): AUCinf; for half-life: T1/2, cats
Description: as §1, §2, §3, §4

[3] = Excretion in urine and faeces after topical Felpreva (Study 3); settings: for route of clearance: in vivo
Description: Urine and faeces were collected from cats in Study 3 for analysis of excretion of the AIs. Sampling days per cat were study days 1, 2, 7, 14, 21 and 28. Cats were kept in stainless steel cages with a litter box for the collection of total urine and faeces. The total volume of urine was determined, thereafter 2 aliquots (A + B) of ∼5 ml urine were taken, collected in clear tubes and stored in a freezer set to maintain −18 °C. Faecal samples were weighed and stored in a freezer set to maintain −18 °C.
Urine samples were prepared for analysis by mixing 100 μl urine with 900 μl solvent mixture (as described above), containing labelled tigolaner and praziquantel as internal standards, and then centrifuged. […] The lower limit of quantitation was 1 μg/l.
Faecal samples were extracted by mixing 1 or 5 g faeces with 15 or 40 ml acetonitrile containing the internal standards. The mixture was ultrasonicated and shaken by means of an overhead shaker and then centrifuged. The supernatant was transferred into a flask and the residue extracted again with 5 or 30 ml extraction solvent, shaken, and centrifuged. The extracts were combined and filled up to 20 or 100 ml with extraction solvent containing the internal standards, then filtered. […] The limit of quantitation was 10 μg/kg for each analyte.

[4] = for AUClast/D (Geo CV%) / Cmax/D (Geo CV%): single topical Felpreva 1x, dose-normalised, geometric mean (geometric CV%)
Description: (§7) Altogether three studies were conducted. Cats were treated with Felpreva® (containing emodepside praziquantel and tigolaner) at the recommended dose (14.5 ​mg/kg tigolaner, 3 ​mg/kg emodepside and 12 ​mg/kg praziquantel) or at 2.5× and 5× the recommended dose. For intravenous (i.v.) injection (Study 1) tigolaner, emodepside and praziquantel were formulated in tetraglycol as 8.9%, 1.85% and 7.4% solutions, respectively.
(§8) All cats were healthy and acclimatized for a minimum of 7 days. In studies 1 and 2, cats were individually housed for 8 ​h or 10–12 days following i.v. or topical administration, respectively, to avoid potential cross-contamination between animals. After this period, cats were group-housed by treatment group and sex. In Study 3, cats were socially housed in groups of 3 (same sex/same dose group) in one or more connected similar cages. The exception was when cats were separated for designated study procedures/activities associated with dosing or urine and faeces collection.
(§9) In Study 1 where i.v. administration was performed, 6 animals per treatment group were treated with a slow manual i.v. bolus using a catheter placed in the Vv. saphena medialis or Vv. saphena lateralis, and suitable 1-ml single-use syringes. Catheters were placed immediately prior to administration and removed immediately afterwards. Tigolaner (in tetraglycol, C5H9O(OC2H4)nOH, CAS no. 31692-85-0) was administered at 1.5 ​mg/kg (volume: 70–80 ​μl), emodepside (in tetraglycol) was administered at 0.3 ​mg/kg (volume 40–70 ​μl) and praziquantel (in tetraglycol) was administered at 0.2 ​mg/kg (volume: 40–60 ​μl). Low dose rates were administered intravenously to ensure tolerance of an i.v. bolus. Where treatment was administered topically, a spot-on application was manually applied at the base of the head while the hair was divided with 2 fingers. In all studies, topical doses were calculated using individual BWs and the nominal content of the three AIs. The AIs were administered based on the licensed therapeutic dose of 14.5, 3 and 12 ​mg/kg BW for tigolaner, emodepside and praziquantel, respectively. Cats were restrained for approximately a minute following administration to aid spread of the applied formulation and to prevent any possible run-off. […] Cats were closely observed for 1 ​h after dosing and at least once daily thereafter.
(§10) Blood samples of ∼0.5 ​ml (Studies 1 and 2) and 1.0 ​ml (Study 3) were collected into EDTA K2E tubes from the Vv. cephalica antebrachii or another suitable vein. Plasma was harvested following centrifugation (10 ​°C, 3220× g for 10 ​min) and subsequently stored frozen at −18 ​°C.
(§11) Analysis of all samples was performed after finalisation of the biological part of the study. The plasma samples were deproteinised by mixing 100 ​μl of plasma with 900 ​μl of a precipitation mixture of 0.040 ​g ammonium acetate in 100 ​ml water plus 0.1 ​ml formic acid and 600 ​ml acetonitrile containing the internal standards praziquantel-cyclohexyl-d11and [^13C2H6] tigolaner and subsequent centrifugation. Analysis of the AIs tigolaner, emodepside, and praziquantel was conducted by using High Performance Liquid Chromatography with an Agilent Zorbax Eclipse Plus C18 Rapid Resolution, 2.1 ​× ​50 ​mm, 1.8 ​μm column, water/formic acid (1000/0.120, v/v) ​+ ​10 ​mMol/l ammonium formate and methanol/formic acid (1000/0.120, v/v) ​+ ​10 ​mMol/l ammonium formate as mobile phase (0–0.5 ​min at 90/10 v/v, gradient to 0/100 v/v at 3–3.5 ​min and gradient to 90/10 v/v at 4–5 ​min) at 60 ​°C with a flow of 0.6 ​ml/min. Detection was performed by Tandem Mass Spectrometry (HPLC-MS/MS) using a Sciex API 5500 mass spectrometer in the positive ionisation mode.

fleas and ticks = settings: cats, single topical dose, minimum recommended dose 14.5 mg/kg body weight, ref Cvejić et al., 2022a, b; Mencke et al., 2023; cited from earlier work
Source text: (§5) Tigolaner, from the bis-pyrazole class of compounds has potent antiparasitic properties acting against γ-aminobutyric acid- (GABA-) and glutamate-gated chloride channels with significant selectivity for insect neurons over mammalian neurons ([EMA, 2022]). Tigolaner has a high potency against insects and acarids by exposure via their feeding, i.e. fleas and ticks that initiate feeding will be exposed to the AI ([Cvejić et al., 2022a], [b]; [Mencke et al., 2023]). A single tigolaner dose administered topically at the minimum recommended dose of 14.5 mg/kg body weight (BW) on cats provides 13 we ...

fleas = settings: cats, topical, ref EMA, 2022; Mencke et al., 2023; cited from earlier work
Source text: as §5

[5] = in vivo; cited from earlier work
Source text: (§6) Felpreva® combines the established Profender® AIs, emodepside and praziquantel with tigolaner.

[6] = set-up: method as in Jacquot et al., 2021; settings: cats, Nexgard Combo spot-on, ref Jacquot et al., 2021; cited from earlier work
Source text: as §6

in vivo = settings: topical or ocular
Description: as §7, §8, §9, §10, §11

[7] = cats, 1.5 mg/kg tigolaner, 0.2 mg/kg emodepside
[8] = cats, single i.v. bolus, 1.5 mg/kg tigolaner, 0.2 mg/kg emodepside, 0.2 mg/kg praziquantel, n = 6, geometric mean (geometric CV%)
[9] = 2.5x dose relative to 1x dose, topical Felpreva, cats
[10] = 5x dose relative to 1x dose, topical Felpreva, cats
[11] = cats, Study 2, single topical Felpreva 2.5x, 0.37 ml/kg
[12] = cats, Study 2, single topical Felpreva 5x, 0.74 ml/kg
[13] = cats, single topical Felpreva 2.5x
[14] = cats, single topical Felpreva 5x
[15] = topical Felpreva, dose rates from 1x to 2.5x and 5x, cats, Cmax/D and AUClast/D
[16] = Domestic Shorthair, in vivo, iv, 0.2 mg/kg

In the case of `Cn1nc(C(F)(F)C(F)(F)F)c(C(F)(F)F)c1-n1cc(-c2ccc(Cl)c(C(=O)NC3(C#N)CC3)c2)cn1` [Tigolaner, tigolaner], the “T1/2 (plasma half-life)” value [1, 7] is reported as 515.4 (54.2) h, the AUCinf [1, 8] is reported as 300.1 (29.1) mg∗h/l and the AUClast [1, 8] is reported as 298 (29.5) mg∗h/l. For the same molecule, the “Cl_pred (systemic clearance)” value [1, 8] was 0.005 (31.7) l/h/kg, the “Vz_pred (volume of distribution)” value [1, 8] was 4.00 (56.5) l/kg and the “Ratio AUClast/D” value [2, 9] was 1.05. For the same molecule, the “Ratio Cmax/D” value [2, 9] was 0.91, the “Ratio AUClast/D” value [2, 10] was 0.76 and the “Ratio Cmax/D” value [2, 10] was 0.58. The Cmax ([2]; cats, Study 2, single topical Felpreva 2.5x, 0.37 ml/kg (36.25 mg/kg tigolaner, 7.5 mg/kg emodepside, 30 mg/kg praziquantel)) was 2496.9 ng/mL, the AUCinf [2, 11] was 3308 mg∗h/l and the T1/2 [2, 11] was 569.9 h. The Tmax [2, 11] was 440.4 h, the Cmax ([2]; cats, Study 2, single topical Felpreva 5x, 0.74 ml/kg (72.5 mg/kg tigolaner, 15 mg/kg emodepside, 60 mg/kg praziquantel)) was 3574.2 ng/mL and the AUCinf [2, 12] was 5393 mg∗h/l. For the same molecule, the T1/2 [2, 12] was 563.2 h, the “AUClast/D (Geo CV%)” value [2, 13] was 108.66 (142.5) h∗kg∗μg/l/μg and the “Cmax/D (Geo CV%)” value [2, 13] was 0.084 (137.8) kg∗μg/l/μg. For the same molecule, the “AUClast/D (Geo CV%)” value [2, 14] was 78.5 (30.7) h∗kg∗μg/l/μg, the “Cmax/D (Geo CV%)” value [2, 14] was 0.053 (34.0) kg∗μg/l/μg and the “dose proportionality of plasma PK (rate and extent)” value (“dose proportionality of plasma PK” for short) [2, 15] was “less than proportional increase”. The “extent of metabolism (conclusion from excretion)” value ([3]; cats, Study 3, topical administration, 28 days) was “poorly metabolized”, the “absolute bioavailability after topical application” value ([4]; cats, Study 1, Fabs = AUCinf/D spot-on / AUCinf/D i.v., group geometric means) was 57% and the “AUClast/D (Geo CV%)” value ([4]; cats) was 103.16 (32.9) h∗kg∗μg/l/μg. For the same molecule, the “Cmax/D (Geo CV%)” value ([4]; cats) was 0.092 (37.9) kg∗μg/l/μg, the “duration of flea and tick control” value (fleas and ticks) was 13 weeks and the “onset of efficacy, fleas already on the cat prior to treatment” value (fleas) was at most 12 h. For the same molecule, the “onset of efficacy, new flea infestation, after two months” value (fleas) was at most 24 h and the “onset of efficacy, new flea infestation, for two months” value (fleas) was at most 8 h.

For `O=C(C1CCCCC1)N1CC(=O)N2CCc3ccccc3C2C1` (stereo not shown) [Praziquantel, praziquantel], the “T1/2 (plasma half-life)” value [1, 7] was 1.8 (94.8) h, the “Cl_pred (systemic clearance)” value ([1]; in vivo) was 1.861 (32.2) l/h/kg and the “Vz_pred (volume of distribution)” value ([1]; in vivo) was 4.95 (142.2) l/kg. The “AUClast/D (Geo CV%)” value [2, 13] was 0.19 (47.7) h∗kg∗μg/l/μg, the “Cmax/D (Geo CV%)” value [2, 13] was 0.003 (51.7) kg∗μg/l/μg and the “AUClast/D (Geo CV%)” value [2, 14] was 0.25 (22.2) h∗kg∗μg/l/μg. The “Cmax/D (Geo CV%)” value [2, 14] was 0.003 (39.8) kg∗μg/l/μg, the “Ratio Cmax/D” value ([2]; in vivo) was 0.75 and the “dose proportionality of plasma PK” value ([2]; in vivo) was “less than proportional increase”. The route of clearance [3] was “equally cleared via the faeces and via the urine for males”, the “AUClast/D (Geo CV%)” value ([4]; cats) was 0.30 (19.9) h∗kg∗μg/l/μg and the “Cmax/D (Geo CV%)” value ([4]; cats) was 0.004 (57.2) kg∗μg/l/μg. The “AUCinf (total plasma exposure)” value ([4]; in vivo) was 3.7 (19.6) mg∗h/l, the AUClast ([4]; in vivo) was 3.6 (19.7) mg∗h/l and the Tmax ([4]; in vivo) was 4.8 (107.7) h. The “absolute bioavailability after topical application” value ([4]; in vivo) was 48%, the “bioavailability after topical application, first 24 h” value ([4]; in vivo) was 6% and the plasma elimination half-life ([4]; in vivo) was 240 h. For the same molecule, the Tmax [5] was 18.7 ± 47 h, the maximum serum concentration [5] was 61.3 ± 44.1 µg/L and the serum half-life [5] was 98.4 ± 36 h. For the same molecule, the serum half-life [6] was 103 h.

`CC(C)C[C@H]1C(=O)O[C@H](Cc2ccc(N3CCOCC3)cc2)C(=O)N(C)[C@@H](CC(C)C)C(=O)O[C@H](C)C(=O)N(C)[C@@H](CC(C)C)C(=O)O[C@H](Cc2ccc(N3CCOCC3)cc2)C(=O)N(C)[C@@H](CC(C)C)C(=O)O[C@H](C)C(=O)N1C` [Emodepside, emodepside] showed an AUC(0-inf) [1, 16] of 1600 ng·h/mL, an AUC(0-t) [1, 16] of 1500 ng·h/mL and a half-life [1, 16] of 202 h. The Vd ([1]; in vivo, iv, 0.2 mg/kg) was 38.2 L/kg, the clearance ([1]; in vivo, iv, 0.2 mg/kg) was 2.18 mL/min/kg and the “Ratio AUClast/D” value [2, 9] was 0.64. For the same molecule, the “Ratio Cmax/D” value [2, 9] was 0.60, the “Ratio AUClast/D” value [2, 10] was 0.66 and the “Ratio Cmax/D” value [2, 10] was 0.53. It also gave an AUC(0-inf) ([2]; European Shorthair (ESH), in vivo, topical or ocular, cats, Study 2, single topical Felpreva 2.5x, 0.37 ml/kg) of 36100 ng·h/mL, an AUC(0-inf) ([2]; European Shorthair (ESH), in vivo, topical or ocular, cats, Study 2, single topical Felpreva 5x, 0.74 ml/kg) of 62500 ng·h/mL and a Cmax ([2]; European Shorthair (ESH), in vivo, topical or ocular, Cmax, cats, Study 2, single topical Felpreva 5x, 0.74 ml/kg (72.5 mg/kg tigolaner, 15 mg/kg emodepside, 60 mg/kg praziquantel)) of 106 ng/mL. The half-life ([2]; European Shorthair (ESH), in vivo, topical or ocular, Study 2, single topical Felpreva 2.5x, 0.37 ml/kg) was 329 h, the half-life ([2]; European Shorthair (ESH), in vivo, topical or ocular, Study 2, single topical Felpreva 5x, 0.74 ml/kg) was 328 h and the Tmax ([2]; European Shorthair (ESH), in vivo, topical or ocular, Tmax, cats, Study 2, single topical Felpreva 2.5x, 0.37 ml/kg) was 47.8 h. The Tmax ([2]; European Shorthair (ESH), in vivo, topical or ocular, Tmax, cats, Study 2, single topical Felpreva 5x, 0.74 ml/kg) was 61.9 h, the “AUClast/D (Geo CV%)” value [2, 13] was 4.32 (44.2) h∗kg∗μg/l/μg and the “Cmax/D (Geo CV%)” value [2, 13] was 0.009 (71.4) kg∗μg/l/μg. For the same molecule, the “AUClast/D (Geo CV%)” value [2, 14] was 4.5 (36.5) h∗kg∗μg/l/μg, the “Cmax/D (Geo CV%)” value [2, 14] was 0.008 (35.7) kg∗μg/l/μg and the “dose proportionality of plasma PK” value [2, 15] was “less than proportional increase”. The route of clearance [3] was “mainly cleared via the faeces”, the “AUClast/D (Geo CV%)” value ([4]; cats) was 6.79 (38.7) h∗kg∗μg/l/μg and the “Cmax/D (Geo CV%)” value ([4]; cats) was 0.015 (61.0) kg∗μg/l/μg. It also gave a Tmax (in vivo; Domestic Shorthair (DSH)) of 36 h, an AUC(0-inf) (in vivo; Domestic Shorthair) of 20600 ng·h/mL and an AUC(0-t) (in vivo; Domestic Shorthair) of 20500 ng·h/mL. For the same molecule, the Cmax (in vivo; Domestic Shorthair) was 44.3 ng/mL, the Tmax (in vivo; Domestic Shorthair) was 36.9 h and the bioavailability (in vivo; Domestic Shorthair) was 90%. For the same molecule, the half-life (in vivo; Domestic Shorthair) was 348 h.
